Drawing on BindingDB's records for doi:10.1021/acs.jmedchem.6b01870 (Purdue University, 2017), this text covers IC50 for 1 compound.

Experiment [1] concerns the target Tyrosyl-DNA phosphodiesterase 1 (Homo sapiens, UniProt Q9NUW8). The experiment in a line: ChEBML_1689436. On the procedure: Inhibition of recombinant TDP1 (unknown origin) using 5'-[32P]-labeled single stranded DNA containing a 3'-phosphotyrosine as substrate after 15 mins by PAGE analysis
Experiment [2] has as its target T1, Tyrosyl-DNA phosphodiesterase 2 (Homo sapiens, UniProt O95551).
T1 sequence (O95551 whole entry): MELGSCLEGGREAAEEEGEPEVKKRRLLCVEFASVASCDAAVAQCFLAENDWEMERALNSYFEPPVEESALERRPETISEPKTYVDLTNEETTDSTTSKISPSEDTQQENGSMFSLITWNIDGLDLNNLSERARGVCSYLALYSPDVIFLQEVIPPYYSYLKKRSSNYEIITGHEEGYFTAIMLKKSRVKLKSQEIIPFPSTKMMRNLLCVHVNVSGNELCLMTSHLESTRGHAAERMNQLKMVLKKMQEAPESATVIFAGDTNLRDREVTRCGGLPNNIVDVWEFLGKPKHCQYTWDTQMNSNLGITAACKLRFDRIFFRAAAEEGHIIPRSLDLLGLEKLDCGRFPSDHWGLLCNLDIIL
The experiment in a line: ChEBML_1689437.
Protocol: Inhibition of recombinant human TDP2 using 3'-labeled alpha-[32P]-cordycepin as substrate after 15 mins

Tyrosyl-DNA phosphodiesterase 1, sequence (Q9NUW8 whole entry): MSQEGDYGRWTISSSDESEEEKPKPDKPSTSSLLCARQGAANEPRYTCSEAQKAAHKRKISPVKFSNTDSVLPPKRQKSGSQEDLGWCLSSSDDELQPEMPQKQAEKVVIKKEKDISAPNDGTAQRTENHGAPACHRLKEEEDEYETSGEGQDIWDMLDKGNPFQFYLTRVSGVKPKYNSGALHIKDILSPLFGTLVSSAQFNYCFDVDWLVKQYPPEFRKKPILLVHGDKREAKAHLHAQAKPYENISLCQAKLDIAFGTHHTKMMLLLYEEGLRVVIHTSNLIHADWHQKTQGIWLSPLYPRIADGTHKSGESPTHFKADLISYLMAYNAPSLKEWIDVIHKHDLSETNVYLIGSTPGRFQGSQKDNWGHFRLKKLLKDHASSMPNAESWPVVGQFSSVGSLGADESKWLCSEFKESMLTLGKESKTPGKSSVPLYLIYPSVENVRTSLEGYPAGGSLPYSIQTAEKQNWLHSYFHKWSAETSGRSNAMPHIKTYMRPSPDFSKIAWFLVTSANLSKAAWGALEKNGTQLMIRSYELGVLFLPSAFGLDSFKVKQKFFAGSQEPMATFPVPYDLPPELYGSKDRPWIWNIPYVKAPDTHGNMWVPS

For `CC[C@@]1(O)C(=O)OCc2c1cc1n(c2=O)Cc2cc3ccccc3nc2-1` [4-Ethyl-4-hydroxy-1,12-dihydro-4H-2-oxa-6,12a-diaza-dibenzo[b,h]fluorene-3,13-dione (Camptothecin)], the IC50 in experiment [1] and in experiment [2] was greater than 111 µM in each case.
